In ChEMBL document CHEMBL3414557, “Synthesis, molecular docking and Brugia malayi thymidylate kinase (BmTMK) enzyme inhibition study of novel derivatives of [6]-shogaol” (Eur J Med Chem, 2015) one finds Ki and inhibition data, which are given here for 14 compounds.

One may read the Ki as a dissociation constant, usually derived from enzyme kinetics or from competition with a known ligand.

The structures appear in SMILES notation. Calls of active or inactive are those of the source. The rule behind the calls is not given here.

Target in one assay: not listed separately
Nature of the assay: (§1) Inhibition of Brugia malayi thymidylate kinase using dTMP substrate by spectrophotometric assay.
For `CCCCCC(CC(=O)CCc1ccc(OC(=O)c2ccc(Cl)nc2)c(OC)c1)Nc1cc(C)ccn1` (centres undefined), the inhibitory constant (Ki) was determined as 30.4 µM.

In the case of `CCCCCC(CC(=O)CCc1ccc(O)c(OC)c1)n1cc(C)c(=O)[nH]c1=O` (centres undefined), the Ki was determined as 6.57 µM.

With `CCCCCC(CC(=O)CCc1ccc(O)c(OC)c1)n1cnc2c(N)ncnc21` (centres undefined), the Ki was determined as 9.01 µM.

`CCCCCC(CC(=O)CCc1ccc(O)c(OC)c1)Nc1ccc(C)cn1` (centres undefined) registered a Ki of 40.6 µM.

Compound `CCCCCC(CC(=O)CCc1ccc(OC(=O)/C=C/c2ccc(F)cc2)c(OC)c1)n1cc(C)c(=O)[nH]c1=O` (centres undefined) yielded a Ki of 44.4 µM. This Ki and that of the compound before are within 1.5-fold of each other.

With `CCCCCC(CC(=O)CCc1ccc(OS(C)(=O)=O)c(OC)c1)n1cc(C)c(=O)[nH]c1=O` (centres undefined), the Ki came out at 66.1 µM.

`CCCCCC(CC(=O)CCc1ccc(O)c(OC)c1)n1cc(Br)c(=O)[nH]c1=O` (centres undefined) yielded a Ki of 8.32 µM.

In the case of `CCCCCC(CC(=O)CCc1ccc(O)c(OC)c1)Nc1cc(C)ccn1` (centres undefined), the Ki is 21.6 µM.

`CCCCCC(CC(=O)CCc1ccc(OC(=O)c2ccc(OC)cc2)c(OC)c1)n1cc(C)c(=O)n(C(=O)c2ccc(OC)cc2)c1=O` (centres undefined) registered an inhibition constant Ki of 20.1 µM.

Compound `CCCCCC(CC(=O)CCc1ccc(O)c(OC)c1)Nc1ncccc1C` (centres undefined) gave a Ki of 11.1 µM.

Compound `CCCCCC(CC(=O)CCc1ccc(OS(=O)(=O)c2ccc(C)cc2)c(OC)c1)n1cc(C)c(=O)[nH]c1=O` (centres undefined) had a Ki of 45.7 µM. This Ki is about 4.1-fold higher than that of the compound before.

`CCCCC/C=C/C(=O)CCc1ccc(O)c(OC)c1` [SHOGAOL] yielded an inhibitory constant (Ki) of 10.8 µM.

`CCCCCC(CC(=O)CCc1ccc(OC(=O)c2ccco2)c(OC)c1)n1cc(C)c(=O)n(C(=O)c2ccco2)c1=O` (centres undefined) had an inhibitory constant (Ki) of 20.3 µM.

The test system of another assay is Brugia malayi. The description is as §1.
As for `CCCCCC(CC(=O)CCc1ccc(OC(=O)c2ccc(Cl)nc2)c(OC)c1)n1cc(C)c(=O)[nH]c1=O` (centres undefined), the inhibition result was “inactive”.
